Test results taken from patent US20250282723A1, “AMYLOID TARGETING AGENTS AND METHODS OF USING THE SAME” (The Regents of the University of California, priority 2021, published 2025).

What was measured:
[1] = Quantum yield measurements; type: physicochemical; conditions: 5% DMSO/H2O, reference standard Coumarin 30; for Quantum Yield (Φ): probes of FIG. 14
Experimental: Quantum Yield Measurements. To determine the quantum yield (QY) of compounds ARCAM, 1-5, a procedure that was similar to a previously reported protocol for estimating the QY for Thioflavin T^24 was used. Briefly, the absorbance spectrum of each probe (in 5% Dimethyl Sulfoxide (DMSO)/water (H2O)), in addition to the absorbance spectrum for the reference standard (Coumarin 30, QY=0.67)^27 was measured. The wavelength at which the two normalized absorbance curves intersected was used as the excitation wavelength. A serial dilution of each probe and the standard was made with absorbance values at the excitation wavelength in the range of 0 to 0.1 absorbance units. At each concentration, the emission spectra for each probe and the standard were measured. Technical triplicates of these experiments were performed for all probes, and the averages were recorded. From these emission spectra, the area under the curve was calculated and plotted against the absorbance at each concentration (FIGS. 3-7). The data were fitted to Equation 1 to obtain estimates for QY: […]
where QY represents the quantum yield, A represents the absorbance, E represents the integrated fluorescence emission, η represents the refractive index of the solvent^28,29, and the ‘p’ and ‘r’ subscripts signify the probe or the reference compound, respectively.
Quantum Yield ((D) for each probe was measured as described previously.^31 Briefly, we measured the absorbance spectrum of each probe in 5% DMSO/H2O, as well as the absorbance spectrum for the reference standard (Coumarin 30, =0.67 in Acetonitrile). Both normalized absorbance curves were plotted, and the wavelength of intersection was used as the excitation wavelength. A serial dilution was made for each probe and the standard with absorbance values at the excitation wavelength varying between of 0 to 0.1 absorbance units. At each concentration, the emission spectra for each probe and the standard were measured. Each experiment was repeated in technical triplicates for all probes, and the averages were recorded. The integrated fluorescence emission was calculated and plotted against the absorbance at each concentration. The data were fitted to Equation Si to obtain estimates for Φ: […]
where Φ represents the quantum yield, A represents the absorbance, E represents the integrated fluorescence emission, η represents the refractive index of the solvent, and the ‘p’ and ‘r’ subscripts signify the probe or the reference compound, respectively.

aggregated αS [2] = target: T1, aggregated αS (Homo sapiens, UniProt P37840); test: Estimation of binding constant (Kd) to aggregated αS; conditions: probes of FIG. 14; aggregated αS 5 μM, increasing concentration of probe, 5% DMSO in nanopure water
T1 construct: made in house; host or cells: E. coli BL21 (plasmid pET5α aSynWT)
Experimental: (§1) Expression and purification of recombinant α-synuclein was followed as reported previously.^32 Briefly, α-synuclein was purified from BL21 E. coli as described: A starter culture of transformed bacteria (pET5α aSynWT) (LB broth with ampicillin [final concentration: 100 μg/mL]) was incubated overnight. Following incubation, 25 mL of the started culture was added to a 500 mL mixture of LB broth and ampicillin. Protein expression was induced by addition of IPTG [0.119 g/500 mL] when an OD600 between 0.5-0.8 was achieved. After 4 h, flasks were centrifuged (5,000×g for 20 min) and the supernatant was removed. The pellets were then re-suspended in 20 mM Tris, 25 mM NaCl, 1 mM EDTA, pH 8.0, transferred into a flask, boiled for 1-2 minutes in a microwave, and boiled in a water bath (90° C.) for 30 minutes. Samples were then centrifuged (18,000×g for 30 min) and the supernatant was collected and filtered through a 0.2 μm filter. α-synuclein protein was further purified using 2×5 ml HiTrapQ HP anion exchange columns (GE, #17-1153-01) followed by Size Exclusion Column (Superdex 200, #28-9893-35). Pure α-synuclein determined by Coomassie and western blot were lyophilized and stored at −80° C. until use.
(§2) Aggregation of purified α-synuclein was followed as reported previously.^33 The lyophilized powder was dissolved to a final concentration of 100 μM in sodium phosphate buffer (50 mM, pH 7.4) with 0.1 mM EDTA and 0.02% sodium azide (w/v) and was aggregated at 37° C. with shaking at 500 rpm for 3 weeks. Fibrillization was confirmed by SDS-PAGE gel and standard ThT assay.
Aggregated Aβ(1-42) or αS at a final concentration of 5 μM (based on the molecular weight of the monomer) was mixed with an increasing concentration of each probe in 5% DMSO in nanopure water. Kd's were calculated as previously described.^34 The measurements for each probe were repeated in technical triplicates and the averages are shown with standard deviations. Kd's for probes 1-3 with aggregated Aβ(1-42) have been reported previously.^31

aggregated αS [3] = target: T1, aggregated αS; test: Fluorescence emission and fluorescence enhancement of probes bound versus unbound to aggregated αS; type: binding; conditions: probes of FIG. 14; for Emmax (with αS) / FI with αS: aggregated αS 5 μM, probe 4 μM; for Emmax (with αS): 5% DMSO in nanopure water; for FI with αS: fold increase of fluorescence, bound vs unbound; for FI αS/Aβ: selectivity of fluorescence response to αS fibrils over Aβ fibrils
Experimental: as §1, §2
Aggregated αS or Aβ(1-42) at a final concentration of 5 μM (based on the molecular weight of monomer) was mixed with each fluorescent probe at a final concentration of 4 μM in 5% DMSO in nanopure water. The solution (80 μL total volume) was transferred to a black opaque 96 well plate and the fluorescence excitation and emission were read using a microplate reader. For emission fluorescence enhancement, the relative fluorescence enhancement of the bound versus unbound state was estimated by comparing the fluorescence intensity at λmax of the amyloid-bound state.

SMILES: COCCOCCOCCNC(=O)/C(C#N)=C/c1ccc2cc(N3CCCCC3C)ccc2c1 (racemic) [Compound 4, (E)-2-cyano-N-(2-(2-(2-methoxyethoxy)ethoxy)ethyl)-3-(6-(2-methylpiperidin-1-yl)naphthalen-2-yl)acrylamide]
- QY [1]: 0.0062 ± 0.0003
- Quantum Yield (Φ) [1]: 0.0062
- Kd (aggregated αS [2]): 4.5 ± 1.6 µM
- Emmax (with αS) (aggregated αS [3]): 531 nm
- FI with αS (aggregated αS [3]): 3.8 ± 0.4
- FI αS/Aβ (aggregated αS [3]): 2.0

SMILES: COCCOCCOCCNC(=O)C(C#N)=Cc1ccc2cc(N3CCCCC3)ccc2c1 (mixture of isomers) [Compound 1]
- QY [1]: 0.0066 ± 0.0023
- Quantum Yield (Φ) [1]: 0.0066
- Kd (aggregated αS [2]): 3.9 ± 3.9 µM
- Emmax (with αS) (aggregated αS [3]): 539 nm
- FI with αS (aggregated αS [3]): 3.0 ± 0.5
- FI αS/Aβ (aggregated αS [3]): 1.4

SMILES: CCC1CCCCN1c1ccc2cc(/C=C(\C#N)C(=O)NCCOCCOCCOC)ccc2c1 (racemic) [Compound 5, (E)-2-cyano-3-(6-(2-ethylpiperidin-1-yl)naphthalen-2-yl)-N-(2-(2-(2-methoxyethoxy)ethoxy)ethyl)acrylamide]
- QY [1]: 0.0055 ± 0.0010
- Quantum Yield (Φ) [1]: 0.0055
- Kd (aggregated αS [2]): 5.8 ± 1.8 µM
- Emmax (with αS) (aggregated αS [3]): 534 nm
- FI with αS (aggregated αS [3]): 4.6 ± 0.7
- FI αS/Aβ (aggregated αS [3]): 3.8
